Measurements from PubChem BioAssay AID1963838 (Molecular Pharmacology Branch, DTP, NCI, 2024).

Test system: 855422-203-R-J1-PDC complex spheroid viability
Assay: Anticancer human tumor 855422-203-R-J1-PDC patient-derived bladder carcinoma cell line growth inhibition [POLQ]
Settings: for IC50: curve of first compound; for viability, T/C: stronger effect = lower value
Outline: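 Patient-derived tumour cells were co-cultured with HUVEC and mesenchymal stem cells as multicellular spheroids at 37 °C. They were treated with POLQ inhibitors (novobiocin, ART-558, RP6685) alone or combined with other agents. Top concentrations were at or near clinical Cmax (otherwise 10 microM; SN-38 at 1 microM), decreasing in half-log steps.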
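Note: spheroids exposed to compounds for seven days before readout.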

`CC(=O)O[C@H]1C(=O)[C@@]2(C)[C@H]([C@H](OC(=O)c3ccccc3)[C@]3(O)C[C@H](OC(=O)[C@H](O)[C@@H](NC(=O)c4ccccc4)c4ccccc4)C(C)=C1C3(C)C)[C@]1(OC(C)=O)CO[C@@H]1C[C@@H]2O` + Cc1cccc(N(C)C(=O)C2C(O)CCN2c2nc(C)cc(C(F)(F)F)c2C#N)c1 was tested, and the IC50 (second compound 0.0316 µM) was < 0.00949 µM, the IC50 (second compound 0.1 µM) was < 0.00949 µM and the IC50 (second compound 0.316 µM) was < 0.00949 µM. The IC50 (second compound 1 µM) was < 0.00949 µM, the IC50 (second compound 3.16 µM) was < 0.00949 µM and the IC50 (second compound 10 µM) was < 0.00949 µM. For the same compound, the viability, T/C (second compound 0.0316 µM, first compound 0.00949 µM) was 13.6%, the viability, T/C (second compound 0.0316 µM, first compound 0.03 µM) was 9.26% and the viability, T/C (second compound 0.0316 µM, first compound 0.0949 µM) was 11.7%. The viability, T/C (second compound 0.0316 µM, first compound 0.3 µM) was 9.48%, the viability, T/C (second compound 0.0316 µM, first compound 0.949 µM) was 11.1% and the viability, T/C (second compound 0.0316 µM, first compound 3 µM) was 12.6%. For the same compound, the viability, T/C (second compound 0.1 µM, first compound 0.00949 µM) was 16.4%, the viability, T/C (second compound 0.1 µM, first compound 0.03 µM) was 10.2% and the viability, T/C (second compound 0.1 µM, first compound 0.0949 µM) was 9.03%. The viability, T/C (second compound 0.1 µM, first compound 0.3 µM) was 7.34%, the viability, T/C (second compound 0.1 µM, first compound 0.949 µM) was 9.39% and the viability, T/C (second compound 0.1 µM, first compound 3 µM) was 8.97%. For the same compound, the viability, T/C (second compound 0.316 µM, first compound 0.00949 µM) was 11.8%, the viability, T/C (second compound 0.316 µM, first compound 0.03 µM) was 10.8% and the viability, T/C (second compound 0.316 µM, first compound 0.0949 µM) was 8.92%. For the same compound, the viability, T/C (second compound 0.316 µM, first compound 0.3 µM) was 9.41%, the viability, T/C (second compound 0.316 µM, first compound 0.949 µM) was 10.9% and the viability, T/C (second compound 0.316 µM, first compound 3 µM) was 9.92%. For the same compound, the viability, T/C (second compound 1 µM, first compound 0.00949 µM) was 9.84%, the viability, T/C (second compound 1 µM, first compound 0.03 µM) was 12% and the viability, T/C (second compound 1 µM, first compound 0.0949 µM) was 9.05%. The viability, T/C (second compound 1 µM, first compound 0.3 µM) was 9.65%, the viability, T/C (second compound 1 µM, first compound 0.949 µM) was 10.3% and the viability, T/C (second compound 1 µM, first compound 3 µM) was 10.7%. It also gave a viability, T/C (second compound 3.16 µM, first compound 0.00949 µM) of 11.4%, a viability, T/C (second compound 3.16 µM, first compound 0.03 µM) of 11.7% and a viability, T/C (second compound 3.16 µM, first compound 0.0949 µM) of 10.1%. It also gave a viability, T/C (second compound 3.16 µM, first compound 0.3 µM) of 10.2%, a viability, T/C (second compound 3.16 µM, first compound 0.949 µM) of 11.5% and a viability, T/C (second compound 3.16 µM, first compound 3 µM) of 10.8%. The viability, T/C (second compound 10 µM, first compound 0.00949 µM) was 13.1%, the viability, T/C (second compound 10 µM, first compound 0.03 µM) was 11.8% and the viability, T/C (second compound 10 µM, first compound 0.0949 µM) was 12.8%. The viability, T/C (second compound 10 µM, first compound 0.3 µM) was 10.9%, the viability, T/C (second compound 10 µM, first compound 0.949 µM) was 12% and the viability, T/C (second compound 10 µM, first compound 3 µM) was 11.9%.
`CC[C@@]1(O)C(=O)OCc2c1cc1n(c2=O)Cc2cc3c(CN(C)C)c(O)ccc3nc2-1` + Cc1cccc(N(C)C(=O)C2C(O)CCN2c2nc(C)cc(C(F)(F)F)c2C#N)c1 showed an IC50 (second compound 0.0316 µM) of 0.0291 µM, an IC50 (second compound 0.1 µM) of 0.0324 µM and an IC50 (second compound 0.316 µM) of 0.028 µM. It also gave an IC50 (second compound 1 µM) of 0.0265 µM, an IC50 (second compound 3.16 µM) of 0.0264 µM and an IC50 (second compound 10 µM) of 0.0231 µM. It also gave a viability, T/C (second compound 0.0316 µM, first compound 0.000316 µM) of 102%, a viability, T/C (second compound 0.0316 µM, first compound 0.001 µM) of 97.4% and a viability, T/C (second compound 0.0316 µM, first compound 0.00316 µM) of 99.8%. For the same compound, the viability, T/C (second compound 0.0316 µM, first compound 0.01 µM) was 82.5%, the viability, T/C (second compound 0.0316 µM, first compound 0.0316 µM) was 47.7% and the viability, T/C (second compound 0.0316 µM, first compound 0.1 µM) was 13.3%. It also gave a viability, T/C (second compound 0.1 µM, first compound 0.000316 µM) of 118%, a viability, T/C (second compound 0.1 µM, first compound 0.001 µM) of 104% and a viability, T/C (second compound 0.1 µM, first compound 0.00316 µM) of 99%. For the same compound, the viability, T/C (second compound 0.1 µM, first compound 0.01 µM) was 103%, the viability, T/C (second compound 0.1 µM, first compound 0.0316 µM) was 50.8% and the viability, T/C (second compound 0.1 µM, first compound 0.1 µM) was 13.7%. For the same compound, the viability, T/C (second compound 0.316 µM, first compound 0.000316 µM) was 94.7%, the viability, T/C (second compound 0.316 µM, first compound 0.001 µM) was 105% and the viability, T/C (second compound 0.316 µM, first compound 0.00316 µM) was 97.5%. For the same compound, the viability, T/C (second compound 0.316 µM, first compound 0.01 µM) was 99.5%, the viability, T/C (second compound 0.316 µM, first compound 0.0316 µM) was 44.1% and the viability, T/C (second compound 0.316 µM, first compound 0.1 µM) was 14.1%. The viability, T/C (second compound 1 µM, first compound 0.000316 µM) was 99.7%, the viability, T/C (second compound 1 µM, first compound 0.001 µM) was 96.4% and the viability, T/C (second compound 1 µM, first compound 0.00316 µM) was 116%. For the same compound, the viability, T/C (second compound 1 µM, first compound 0.01 µM) was 89.4%, the viability, T/C (second compound 1 µM, first compound 0.0316 µM) was 43% and the viability, T/C (second compound 1 µM, first compound 0.1 µM) was 12.4%. It also gave a viability, T/C (second compound 3.16 µM, first compound 0.000316 µM) of 102%, a viability, T/C (second compound 3.16 µM, first compound 0.001 µM) of 100% and a viability, T/C (second compound 3.16 µM, first compound 0.00316 µM) of 113%. The viability, T/C (second compound 3.16 µM, first compound 0.01 µM) was 94.9%, the viability, T/C (second compound 3.16 µM, first compound 0.0316 µM) was 41.6% and the viability, T/C (second compound 3.16 µM, first compound 0.1 µM) was 11.9%. The viability, T/C (second compound 10 µM, first compound 0.000316 µM) was 97.4%, the viability, T/C (second compound 10 µM, first compound 0.001 µM) was 97.7% and the viability, T/C (second compound 10 µM, first compound 0.00316 µM) was 107%. For the same compound, the viability, T/C (second compound 10 µM, first compound 0.01 µM) was 86.8%, the viability, T/C (second compound 10 µM, first compound 0.0316 µM) was 36% and the viability, T/C (second compound 10 µM, first compound 0.1 µM) was 11.6%.
